Data taken from the NIST ThermoML archive (doi:10.1016/j.jct.2013.08.007).

Key:
[1] = xn = mol fraction of the nth substance listed; details: Liquid; for viscosity: Moving piston method; for mass density: Vibrating tube method
[2] = Liquid; for mass density: Vibrating tube method; for viscosity: 101.33 kPa, Moving piston method

C [methane] + CCCCO
[1]
Details	mass density, 303 K [kg/m3]	mass density, 323.1 K [kg/m3]	viscosity, 303 K [mPa·s]	viscosity, 323.1 K [mPa·s]
1050 kPa, x1 = 0.02	–	782.2	–	1.236
1060 kPa, x1 = 0.021	797.6	–	1.994	–
2070 kPa, x1 = 0.035	–	778.5	–	1.174
2100 kPa, x1 = 0.039	793.7	–	1.86	–
2980 kPa, x1 = 0.048	–	775.5	–	1.131
3120 kPa, x1 = 0.056	789.4	–	1.731	–
4030 kPa, x1 = 0.065	–	771.6	–	1.085
4080 kPa, x1 = 0.071	785.8	–	1.67	–
5020 kPa, x1 = 0.079	–	767.9	–	1.046
5090 kPa, x1 = 0.087	781.8	–	1.612	–
6070 kPa, x1 = 0.095	–	764.2	–	1.005
6070 kPa, x1 = 0.102	778.3	–	1.548	–

CCCCO [butan-1-ol] + O=C=O
[1]
Details	mass density, 303 K [kg/m3]	mass density, 323.1 K [kg/m3]	viscosity, 303 K [mPa·s]	viscosity, 323.1 K [mPa·s]
920 kPa, x2 = 0.047	–	789.3	–	1.143
1050 kPa, x2 = 0.07	808.1	–	1.744	–
1920 kPa, x2 = 0.098	–	793.3	–	1
2030 kPa, x2 = 0.14	814.3	–	1.428	–
2940 kPa, x2 = 0.151	–	798.4	–	0.828
3220 kPa, x2 = 0.217	822.8	–	1.16	–
3990 kPa, x2 = 0.223	–	802	–	0.722
4100 kPa, x2 = 0.304	828.4	–	0.87	–
4970 kPa, x2 = 0.384	835.3	–	0.661	–
5100 kPa, x2 = 0.288	–	806.7	–	0.599
6250 kPa, x2 = 0.374	–	811	–	0.486

CCCCO [butan-1-ol]
mass density [kg/m3], [2]
Details	302.9 K	323.1 K
100 kPa	802	785.6
1010 kPa	–	786.6
1020 kPa	802.7	–
2010 kPa	803.4	–
2020 kPa	–	787.5
3010 kPa	804.1	788.3
4000 kPa	804.9	789.2
5010 kPa	805.7	–
5020 kPa	–	790
6000 kPa	806.4	–
6020 kPa	–	790.9
7000 kPa	–	791.7
7020 kPa	807.2	–
8010 kPa	807.9	792.5
9020 kPa	808.7	793.3
10020 kPa	809.4	794.2

[2]
Details	viscosity [mPa·s]
303.15 K	2.197
323.3 K	1.347

CC [ethane] + CCCCO
[1]
Details	mass density, 303 K [kg/m3]	mass density, 323.1 K [kg/m3]	viscosity, 303 K [mPa·s]	viscosity, 323.1 K [mPa·s]
1050 kPa, x1 = 0.097	776.8	–	1.553	–
1140 kPa, x1 = 0.086	–	762.8	–	1.008
2050 kPa, x1 = 0.157	–	744.2	–	0.801
2080 kPa, x1 = 0.214	745.4	–	1.114	–
3070 kPa, x1 = 0.243	–	718.4	–	0.618
3070 kPa, x1 = 0.341	704.9	–	0.668	–
4070 kPa, x1 = 0.336	–	688.3	–	0.462
4950 kPa, x1 = 0.428	–	652.9	–	0.351
6020 kPa, x1 = 0.579	–	588.2	–	0.212
